Assay results published in PMC5218480 (PLoS ONE, 2017).

Test system: MV-4-11 cells
Test: Gene expression microarray analysis (Affymetrix PrimeView) and GSEA
Assay type: cell-based, human
Design: RFU PODN (11730768_x_at) / Fold change /veh PODN (11730768_x_at) / RFU LINC00158 (11744669_a_at) / Fold change /veh LINC00158 (11744669_a_at) / RFU DUSP10 (11751237_a_at) / Fold change /veh DUSP10 (11751237_a_at) / RFU ID3 (11757404_x_at) / Fold change /veh ID3 (11757404_x_at) / RFU PLEKHG5 (11737974_s_at) / Fold change /veh PLEKHG5 (11737974_s_at) / RFU LRRC4B (11730491_at) / Fold change /veh LRRC4B (11730491_at) / RFU GIMAP4 (11747438_a_at) / Fold change /veh GIMAP4 (11747438_a_at) / RFU KRT8 (11758183_x_at) / Fold change /veh KRT8 (11758183_x_at) / RFU CNN1 (11734310_a_at) / Fold change /veh CNN1 (11734310_a_at) / RFU VPS37D (11726825_at) / Fold change /veh VPS37D (11726825_at) / RFU C10orf10 (11716522_x_at) / Fold change /veh C10orf10 (11716522_x_at) / RFU KIR2DL2 /// KIR2DL4 /// KIR2DL5A /// KIR2DL5B /// KIR2DS1 /// KIR2DS2 /// KIR2DS3 /// KIR2DS4 /// KIR3DL3 /// KIR3DL3 /// KIR3DS1 (11738374_at) / Fold change /veh KIR2DL2 /// KIR2DL4 /// KIR2DL5A /// KIR2DL5B /// KIR2DS1 /// KIR2DS2 /// KIR2DS3 /// KIR2DS4 /// KIR3DL3 /// KIR3DL3 /// KIR3DS1 (11738374_at) / RFU C1QL1 (11718748_at) / Fold change /veh C1QL1 (11718748_at) / RFU TMPRSS4 (11747572_a_at) / Fold change /veh TMPRSS4 (11747572_a_at) / RFU HAMP (11756126_x_at) / Fold change /veh HAMP (11756126_x_at) / RFU RNFT2 (11725882_a_at) / Fold change /veh RNFT2 (11725882_a_at) / RFU NR4A2 (11747474_a_at) / Fold change /veh NR4A2 (11747474_a_at) / RFU ABCC12 (11746883_a_at) / Fold change /veh ABCC12 (11746883_a_at) / RFU TMEM136 (11760407_x_at) / Fold change /veh TMEM136 (11760407_x_at) / RFU CLDN22 /// WWC2 (11732394_at) / Fold change /veh CLDN22 /// WWC2 (11732394_at) / RFU HLA-DPB1 (11760878_x_at) / Fold change /veh HLA-DPB1 (11760878_x_at) / RFU SPINT1 (11716480_a_at) / Fold change /veh SPINT1 (11716480_a_at) / RFU GAP43 (11754022_s_at) / Fold change /veh GAP43 (11754022_s_at) / RFU A4GNT (11735810_at) / Fold change /veh A4GNT (11735810_at) / RFU PRB3 (11715151_x_at) / Fold change /veh PRB3 (11715151_x_at) / RFU TUBB4B (11761932_at) / Fold change /veh TUBB4B (11761932_at) / RFU CAPN14 (11732068_a_at) / Fold change /veh CAPN14 (11732068_a_at) / RFU TMCC2 (11721928_a_at) / Fold change /veh TMCC2 (11721928_a_at) / RFU IRGQ (11745062_a_at) / Fold change /veh IRGQ (11745062_a_at) / RFU FAM174B (11720279_a_at) / Fold change /veh FAM174B (11720279_a_at) / RFU TMPRSS4 (11748680_a_at) / Fold change /veh TMPRSS4 (11748680_a_at) / RFU FAM212B (11763350_a_at) / Fold change /veh FAM212B (11763350_a_at) / RFU PLEKHG5 (11743358_a_at) / Fold change /veh PLEKHG5 (11743358_a_at) / RFU ZSCAN30 (11745921_a_at) / Fold change /veh ZSCAN30 (11745921_a_at) / RFU CMKLR1 (11741424_a_at) / Fold change /veh CMKLR1 (11741424_a_at) / RFU LOC101060620 /// MAPK8IP1 (11723275_at) / Fold change /veh LOC101060620 /// MAPK8IP1 (11723275_at) / RFU SPTSSB (11747773_x_at) / Fold change /veh SPTSSB (11747773_x_at) / RFU PRSS12 (11739890_at) / Fold change /veh PRSS12 (11739890_at) / RFU BIN1 (11741810_x_at) / Fold change /veh BIN1 (11741810_x_at) / RFU WNT11 (11732464_a_at) / Fold change /veh WNT11 (11732464_a_at) / RFU C10orf10 (11716521_a_at) / Fold change /veh C10orf10 (11716521_a_at) / RFU C5orf56 (11738089_at) / Fold change /veh C5orf56 (11738089_at) / RFU CYB561 (11721691_x_at) / Fold change /veh CYB561 (11721691_x_at) / RFU ANKRD19P (11752326_a_at) / Fold change /veh ANKRD19P (11752326_a_at) / RFU OR2T12 /// OR2T33 /// OR2T8 (11738714_s_at) / Fold change /veh OR2T12 /// OR2T33 /// OR2T8 (11738714_s_at) / RFU VCAN (11748164_a_at) / Fold change /veh VCAN (11748164_a_at) / RFU JSRP1 (11732532_at) / Fold change /veh JSRP1 (11732532_at) / RFU KRTAP10-11 (11738290_x_at) / Fold change /veh KRTAP10-11 (11738290_x_at) / RFU MYO3A (11730013_a_at) / Fold change /veh MYO3A (11730013_a_at) / RFU EBF3 (11725865_a_at) / Fold change /veh EBF3 (11725865_a_at) / RFU CAMK2N1 (11719241_x_at) / Fold change /veh CAMK2N1 (11719241_x_at) / RFU C5orf56 (11738088_a_at) / Fold change /veh C5orf56 (11738088_a_at) / RFU OLFML3 (11715873_a_at) / Fold change /veh OLFML3 (11715873_a_at) / RFU LOC100653217 /// NTM (11731650_a_at) / Fold change /veh LOC100653217 /// NTM (11731650_a_at) / RFU MAPK11 (11762145_a_at) / Fold change /veh MAPK11 (11762145_a_at) / RFU FIZ1 (11724087_x_at) / Fold change /veh FIZ1 (11724087_x_at) / RFU OASL (11726364_x_at) / Fold change /veh OASL (11726364_x_at) / RFU SOX15 (11748057_x_at) / Fold change /veh SOX15 (11748057_x_at) / RFU CD79A (11719716_a_at) / Fold change /veh CD79A (11719716_a_at) / RFU HIST1H1D (11736915_at) / Fold change /veh HIST1H1D (11736915_at) / RFU CASKIN2 (11723855_a_at) / Fold change /veh CASKIN2 (11723855_a_at) / RFU LOC730098 (11760151_x_at) / Fold change /veh LOC730098 (11760151_x_at) / RFU OR4N2 (11742367_at) / Fold change /veh OR4N2 (11742367_at) / RFU PRRT2 (11749266_a_at) / Fold change /veh PRRT2 (11749266_a_at) / RFU SNX32 (11753110_a_at) / Fold change /veh SNX32 (11753110_a_at) / RFU CDHR5 (11726645_a_at) / Fold change /veh CDHR5 (11726645_a_at) / RFU RCAN1 (11760418_a_at) / Fold change /veh RCAN1 (11760418_a_at) / RFU FAM167A (11723789_a_at) / Fold change /veh FAM167A (11723789_a_at) / RFU FAM26E (11764081_at) / Fold change /veh FAM26E (11764081_at) / RFU ISYNA1 (11749810_s_at) / Fold change /veh ISYNA1 (11749810_s_at) / RFU ACY1 (11761880_at) / Fold change /veh ACY1 (11761880_at) / RFU 11764098_at / Fold change /veh 11764098_at / RFU SAMD14 (11745864_x_at) / Fold change /veh SAMD14 (11745864_x_at) / RFU NPB (11741838_a_at) / Fold change /veh NPB (11741838_a_at) / RFU TMPRSS6 (11731388_a_at) / Fold change /veh TMPRSS6 (11731388_a_at) / RFU KRTAP10-2 (11738614_at) / Fold change /veh KRTAP10-2 (11738614_at) / RFU ARHGAP8 /// PRR5-ARHGAP8 (11727945_x_at) / Fold change /veh ARHGAP8 /// PRR5-ARHGAP8 (11727945_x_at) / RFU KRTAP5-7 /// NADSYN1 (11734609_at) / Fold change /veh KRTAP5-7 /// NADSYN1 (11734609_at) / RFU RASL12 (11751679_a_at) / Fold change /veh RASL12 (11751679_a_at) / RFU CDKN2B (11736163_a_at) / Fold change /veh CDKN2B (11736163_a_at) / RFU PRF1 (11729649_at) / Fold change /veh PRF1 (11729649_at) / RFU, ZNF638 /// ZNF638-IT1 / Fold change vs veh, ZNF638 /// ZNF638-IT1 / RFU, PANK3 / Fold change vs veh, PANK3 / RFU, SH3YL1 / Fold change vs veh, SH3YL1 / RFU, ZEB2 / Fold change vs veh, ZEB2 / RFU, NRIP1 / Fold change vs veh, NRIP1 / RFU, PTTG1IP / Fold change vs veh, PTTG1IP / RFU, CAPN2 / Fold change vs veh, CAPN2 / RFU, MED14 / Fold change vs veh, MED14 / RFU, SNORA58 / Fold change vs veh, SNORA58 / RFU, C1orf63 / Fold change vs veh, C1orf63 / RFU, LRRFIP1 / Fold change vs veh, LRRFIP1 / RFU, NDUFAF7 / Fold change vs veh, NDUFAF7 / RFU, SLC12A2 / Fold change vs veh, SLC12A2 / RFU, IBTK / Fold change vs veh, IBTK / RFU, ESF1 / Fold change vs veh, ESF1 / Fold change vs veh, TMEM50B / RFU, TAOK1 / Fold change vs veh, TAOK1 / RFU, ACBD3 / Fold change vs veh, ACBD3 / RFU, TMA16 / Fold change vs veh, TMA16 / RFU, RWDD3 / Fold change vs veh, RWDD3 / RFU, BCAT1 / Fold change vs veh, BCAT1 / RFU, EDEM3 / Fold change vs veh, EDEM3 / RFU, TMEM33 / Fold change vs veh, TMEM33 / RFU, WDR75 / Fold change vs veh, WDR75 / RFU, AHCTF1 / Fold change vs veh, AHCTF1 / RFU, TFRC / Fold change vs veh, TFRC / RFU, ZDHHC17 / Fold change vs veh, ZDHHC17 / RFU, NOM1 / Fold change vs veh, NOM1 / RFU, ARL8B / Fold change vs veh, ARL8B / RFU, ZBTB11 / Fold change vs veh, ZBTB11 / RFU, TAMM41 / Fold change vs veh, TAMM41 / RFU, KIAA1704 /// LOC100996395 / Fold change vs veh, KIAA1704 /// LOC100996395 / RFU, ING1 / Fold change vs veh, ING1 / RFU, TRMT61B / Fold change vs veh, TRMT61B / RFU, FUBP3 / Fold change vs veh, FUBP3 / RFU, TP53 / Fold change vs veh, TP53 / RFU, TNKS2 / Fold change vs veh, TNKS2 / RFU, ZFP14 / Fold change vs veh, ZFP14 / RFU, ACTR2 / Fold change vs veh, ACTR2 / RFU, PPP3R1 / Fold change vs veh, PPP3R1 / RFU, PIK3R1 / Fold change vs veh, PIK3R1 / RFU, HNRNPA1 / Fold change vs veh, HNRNPA1 / RFU, RNF170 / Fold change vs veh, RNF170 / RFU, ZNF28 / Fold change vs veh, ZNF28 / RFU, RNGTT / Fold change vs veh, RNGTT / RFU, OGT / Fold change vs veh, OGT / RFU, BRD1 / Fold change vs veh, BRD1 / RFU, MARS / Fold change vs veh, MARS / RFU, ZNF655 / Fold change vs veh, ZNF655 / RFU, FAHD1 / Fold change vs veh, FAHD1 / RFU, BDP1 / Fold change vs veh, BDP1 / RFU, LRRCC1 / Fold change vs veh, LRRCC1 / RFU, ARID1A / Fold change vs veh, ARID1A / RFU, ZNF146 / Fold change vs veh, ZNF146 / RFU, ZNF330 / Fold change vs veh, ZNF330 / RFU, GPN3 / Fold change vs veh, GPN3 / RFU, C9orf123 / Fold change vs veh, C9orf123 / RFU, N4BP2L2 / Fold change vs veh, N4BP2L2 / RFU, ARFIP1 / Fold change vs veh, ARFIP1 / RFU, FAM179B / Fold change vs veh, FAM179B / RFU, BCL10 / Fold change vs veh, BCL10 / RFU, UHRF1BP1L / Fold change vs veh, UHRF1BP1L / RFU, BET1 / Fold change vs veh, BET1 / RFU, CNOT2 / Fold change vs veh, CNOT2 / RFU, ZNF268 / Fold change vs veh, ZNF268 / Fold change vs veh, ZNF507 / RFU, DGCR2 / Fold change vs veh, DGCR2 / RFU, WDSUB1 / Fold change vs veh, WDSUB1 / Fold change vs veh, HSP90B1 /// MIR3652 / RFU, ADSS / Fold change vs veh, ADSS / RFU, GK / Fold change vs veh, GK / RFU, ZNF148 / Fold change vs veh, ZNF148 / RFU, TAF9 / Fold change vs veh, TAF9 / RFU, SLC1A5 / Fold change vs veh, SLC1A5 / RFU, SLMO2 / Fold change vs veh, SLMO2 / RFU, ABCC4 / Fold change vs veh, ABCC4 / RFU, LOC101060439 /// RAP1B / Fold change vs veh, LOC101060439 /// RAP1B / RFU, RFX7 / Fold change vs veh, RFX7 / RFU, GTPBP10 / Fold change vs veh, GTPBP10 / RFU, CNEP1R1 / Fold change vs veh, CNEP1R1 / RFU, BIVM-ERCC5 /// ERCC5 / Fold change vs veh, BIVM-ERCC5 /// ERCC5 / RFU, ILF3 / Fold change vs veh, ILF3 / RFU 11762660_at / Fold change /veh 11762660_at / RFU VCAN (11757783_s_at) / Fold change /veh VCAN (11757783_s_at) / RFU DDX43 (11728927_at) / Fold change /veh DDX43 (11728927_at) / RFU KRT8 (11758188_x_at) / Fold change /veh KRT8 (11758188_x_at) / RFU NKD1 (11759106_at) / Fold change /veh NKD1 (11759106_at) / RFU SRD5A1 (11742802_a_at) / Fold change /veh SRD5A1 (11742802_a_at) / RFU TPSAB1 /// TPSB2 (11721975_s_at) / Fold change /veh TPSAB1 /// TPSB2 (11721975_s_at) / RFU GSTM3 (11746129_a_at) / Fold change /veh GSTM3 (11746129_a_at) / RFU IL23R (11737362_x_at) / Fold change /veh IL23R (11737362_x_at) / RFU TMEM51 (11727254_a_at) / Fold change /veh TMEM51 (11727254_a_at) / RFU PIWIL2 (11732686_x_at) / Fold change /veh PIWIL2 (11732686_x_at) / RFU ORM1 (11744905_x_at) / Fold change /veh ORM1 (11744905_x_at) / RFU CCDC152 (11743942_at) / Fold change /veh CCDC152 (11743942_at) / RFU ECM1 (11717891_a_at) / Fold change /veh ECM1 (11717891_a_at) / RFU IL23R (11748794_a_at) / Fold change /veh IL23R (11748794_a_at) / RFU TNFAIP8L3 (11732012_x_at) / Fold change /veh TNFAIP8L3 (11732012_x_at) / RFU MBOAT4 (11741988_at) / Fold change /veh MBOAT4 (11741988_at) / RFU 11764193_at / Fold change /veh 11764193_at / RFU TMEM53 (11763286_at) / Fold change /veh TMEM53 (11763286_at) / RFU MAGEB2 (11727129_at) / Fold change /veh MAGEB2 (11727129_at) / RFU TMEM200A (11744735_a_at) / Fold change /veh TMEM200A (11744735_a_at) / RFU CCDC152 (11751479_a_at) / Fold change /veh CCDC152 (11751479_a_at) / RFU FAM211A (11726209_a_at) / Fold change /veh FAM211A (11726209_a_at) / RFU RGS16 (11746705_a_at) / Fold change /veh RGS16 (11746705_a_at) / RFU VCAN (11755009_s_at) / Fold change /veh VCAN (11755009_s_at) / RFU RHOB (11743442_s_at) / Fold change /veh RHOB (11743442_s_at) / RFU RGS16 (11720943_a_at) / Fold change /veh RGS16 (11720943_a_at) / RFU RGS16 (11720944_at) / Fold change /veh RGS16 (11720944_at) / RFU, VPS4B / Fold change vs veh, VPS4B / RFU, CREB1 / Fold change vs veh, CREB1 / RFU, DNAJC13 / Fold change vs veh, DNAJC13 / RFU, GNAQ / Fold change vs veh, GNAQ / RFU, CDK5R1 / Fold change vs veh, CDK5R1 / RFU, ZRANB3 / Fold change vs veh, ZRANB3 / RFU, CUL4A / Fold change vs veh, CUL4A / RFU, CCNY / Fold change vs veh, CCNY / RFU, UFL1 / Fold change vs veh, UFL1 / RFU, COG3 / Fold change vs veh, COG3 / RFU, DIAPH2 / Fold change vs veh, DIAPH2 / RFU, SKA2 / Fold change vs veh, SKA2 / RFU, AFF3 / Fold change vs veh, AFF3 / RFU, LMF1 / Fold change vs veh, LMF1 / RFU, IPO11 / Fold change vs veh, IPO11 / RFU, DFFB / Fold change vs veh, DFFB / RFU, FOXP1 / Fold change vs veh, FOXP1 / RFU, CARD8 / Fold change vs veh, CARD8 / RFU, STRN3 / Fold change vs veh, STRN3 / RFU, ADK / Fold change vs veh, ADK / RFU, RASSF2 / Fold change vs veh, RASSF2 / RFU, WIPF1 / Fold change vs veh, WIPF1 / RFU, LARP1B / Fold change vs veh, LARP1B / RFU, RASA1 / Fold change vs veh, RASA1 / RFU, RB1 / Fold change vs veh, RB1 / RFU, PPFIA1 / Fold change vs veh, PPFIA1 / RFU, MAT2A / Fold change vs veh, MAT2A / RFU, CCT5 / Fold change vs veh, CCT5 / RFU, WDR92 / Fold change vs veh, WDR92 / RFU, CUX1 / Fold change vs veh, CUX1 / RFU, TTC7A / Fold change vs veh, TTC7A / RFU, TMEM135 / Fold change vs veh, TMEM135 / RFU, DEPTOR / Fold change vs veh, DEPTOR / RFU, CPM / Fold change vs veh, CPM / RFU, DNAJB6 / Fold change vs veh, DNAJB6 / RFU, CACNA2D3 / Fold change vs veh, CACNA2D3 / RFU, DTX4 / Fold change vs veh, DTX4 / RFU, TFCP2 / Fold change vs veh, TFCP2 / RFU, GMCL1 /// GMCL1P1 / Fold change vs veh, GMCL1 /// GMCL1P1 / RFU, AEBP2 / Fold change vs veh, AEBP2 / RFU, SNHG1 /// SNORD22 /// SNORD25 /// SNORD26 /// SNORD27 /// SNORD28 /// SNORD29 /// SNORD31 / Fold change vs veh, SNHG1 /// SNORD22 /// SNORD25 /// SNORD26 /// SNORD27 /// SNORD28 /// SNORD29 /// SNORD31 / Fold change (Aza/veh), C12orf56 (ProbeSet 11735607_a_at) / Fold change (ACY-1035/veh), C12orf56 (ProbeSet 11735607_a_at) / Fold change (Aza/veh), FGFR1OP (ProbeSet 11751329_s_at) / Fold change (ACY-1035/veh), FGFR1OP (ProbeSet 11751329_s_at) / Fold change (Aza/veh), VPS36 (ProbeSet 11739960_a_at) / Fold change (ACY-1035/veh), VPS36 (ProbeSet 11739960_a_at) / RFU SYPL1 (11715823_x_at) / Fold change /veh SYPL1 (11715823_x_at) / RFU IGFBP7 (11715501_s_at) / Fold change /veh IGFBP7 (11715501_s_at) / RFU REEP3 (11722064_at) / Fold change /veh REEP3 (11722064_at) / RFU IGLL1 (11728026_x_at) / Fold change /veh IGLL1 (11728026_x_at): dose or concentration left out as unconfirmed
Details: MV-4-11 cells, 48 hours

Nc1ncn([C@@H]2O[C@H](CO)[C@@H](O)[C@H]2O)c(=O)n1 [azacitidine]
RFU KRTAP10-11 (11738290_x_at): 43.89 RFU
